Data from paper PMC10208570, “Peptidomimetic antibiotics disrupt the lipopolysaccharide transport bridge of drug-resistant Enterobacteriaceae” (Science Advances, 2023).
≈ marks a conversion by molar mass, not a printed value. Read-outs that look alike come from different tables or passages of the source.

Tests used:
[1] = system: panel of 121 Enterobacteriaceae including CRE, MDR, and XDR isolates; assay: organism not typed
Protocol: (§1) MIC assays [Clinical and Laboratory Standards Institute (CLSI) methodology] and serial passage studies were performed as described by Luther et al. ([6]). […] Resistant mutants were isolated, and their MIC values were determined and sent to Microbes NG (Birmingham, United Kingdom) for whole-genome sequencing and bioinformatic analysis.

[2] = system: E. coli ST131 (n=8); assay: MIC against isolate panel; type: cell-based, Escherichia coli; conditions: CLSI microdilution; minimum and maximum MIC of the panel
Protocol: as §1

[3] = system: Enterobacteriaceae (CS, Col-S) (n=22); type: cell-based; conditions: CLSI microdilution; minimum and maximum MIC of the panel; carbapenem sensitive, colistin sensitive
Protocol: as §1

[4] = system: K. pneumoniae 968733 (CST-R); assay: MIC assay (CLSI); type: cell-based, Klebsiella pneumoniae; conditions: Klebsiella pneumoniae, read-out: MIC K. pneumoniae 968733 (CST-R) Parent
Protocol: as §1

[5] = system: Klebsiella pneumoniae NCTC 13443 LptA I36S mutant; assay: microbe, parasite or virus in culture; conditions: Klebsiella pneumoniae, NCTC13443, read-out: MIC Klebsiella pneumoniae NCTC 13443 LptA I36S (2x)
Protocol: as §1

[6] = system: K. pneumoniae ATCC 43816 (parent / WT); assay: microbe, parasite or virus in culture; conditions: Klebsiella pneumoniae, ATCC43816, read-out: MIC Klebsiella pneumoniae ATCC 43816 WT
Protocol: as §1

[7] = system: Klebsiella pneumoniae ATCC 43816 LapB mutant; assay: microbe, parasite or virus in culture; conditions: Klebsiella pneumoniae, ATCC43816, read-out: MIC Klebsiella pneumoniae ATCC 43816 LapB (1x)
Protocol: as §1

[8] = system: E. coli ATCC 25922 (parent / WT); assay: microbe, parasite or virus in culture; conditions: Escherichia coli
Protocol: as §1

[9] = system: K. pneumoniae NCTC 13443 (NDM-1) LptA Q62L mutant; assay: microbe, parasite or virus in culture; conditions: Klebsiella pneumoniae
Protocol: as §1

[10] = system: Klebsiella pneumoniae ATCC 43816 LptA I36S mutant; assay: microbe, parasite or virus in culture; conditions: Klebsiella pneumoniae, ATCC43816, read-out: MIC Klebsiella pneumoniae ATCC 43816 LptA I36S (1x)
Protocol: as §1

[11] = system: Klebsiella pneumoniae ATCC 43816 LptA L116Q mutant; assay: microbe, parasite or virus in culture; conditions: Klebsiella pneumoniae, ATCC43816, read-out: MIC Klebsiella pneumoniae ATCC 43816 LptA L116Q (1x)
Protocol: as §1

[12] = system: Klebsiella pneumoniae NCTC 13443 LpxC, LpxD mutant; assay: microbe, parasite or virus in culture; conditions: Klebsiella pneumoniae, NCTC13443, read-out: MIC Klebsiella pneumoniae NCTC 13443 LpxC, LpxD (1x)
Protocol: as §1

[13] = system: K. pneumoniae NCTC 13443 (NDM-1) (parent / WT); assay: microbe, parasite or virus in culture; conditions: Klebsiella pneumoniae
Protocol: as §1

[14] = system: Klebsiella pneumoniae NCTC 13443 YejM mutant; assay: microbe, parasite or virus in culture; conditions: Klebsiella pneumoniae, NCTC13443, read-out: MIC Klebsiella pneumoniae NCTC 13443 YejM (1x)
Protocol: as §1

[15] = system: Escherichia coli ATCC 25922 LptA E84D mutant; assay: microbe, parasite or virus in culture; conditions: Escherichia coli, ATCC25922, read-out: MIC Escherichia coli ATCC 25922 LptA E84D (1x)
Protocol: as §1

[16] = system: K. pneumoniae ATCC 43816 LptA Q62L mutant; assay: microbe, parasite or virus in culture; conditions: Klebsiella pneumoniae
Protocol: as §1

[17] = system: E. coli ATCC 25922 LptA Q62L mutant; assay: microbe, parasite or virus in culture; conditions: Escherichia coli
Protocol: as §1

[18] = system: Escherichia coli ATCC 25922 KdsD mutant; assay: microbe, parasite or virus in culture; conditions: Escherichia coli, ATCC25922, read-out: MIC Escherichia coli ATCC 25922 KdsD (2x)
Protocol: as §1

[19] = system: Klebsiella pneumoniae ATCC 43816 LptA I36N mutant; assay: microbe, parasite or virus in culture; conditions: Klebsiella pneumoniae, ATCC43816, read-out: MIC Klebsiella pneumoniae ATCC 43816 LptA I36N (1x)
Protocol: as §1

[20] = system: Klebsiella pneumoniae ATCC 43816 PglJ, PhnJ, ThiH mutant; assay: microbe, parasite or virus in culture; conditions: Klebsiella pneumoniae, ATCC43816, read-out: MIC Klebsiella pneumoniae ATCC 43816 PglJ, PhnJ, ThiH (1x)
Protocol: as §1

## C[C@@H](O)[C@H]1C(=O)N2C(C(=O)O)=C(S[C@@H]3CN[C@H](C(=O)N(C)C)C3)[C@H](C)[C@H]12 [Meropenem]
[1]; read-out: MIC50 (n=121)
  MIC50: > 8 µg/mL
[1]; read-out: MIC90 (n=121)
  MIC90: > 64 µg/mL
[2]
  MIC range E. coli ST131 (n=8): <=0.06-8 µg/mL
[3]
  MIC range Enterobacteriaceae (CS, Col-S) (n=22): ≤0.06 to 0.5 µg/mL
[4]
  MIC: 0.031 µg/mL (≈ 0.0808 µM)
[5]
  MIC: > 64 µg/mL
[6]
  MIC: 0.13 µg/mL (≈ 0.339 µM)
[7]
  MIC: 0.13 µg/mL (≈ 0.339 µM)
[8]; ATCC25922, read-out: MIC E. coli ATCC 25922 Parent
  MIC: 0.063 µg/mL (≈ 0.164 µM)
[8]; ATCC25922, read-out: MIC Escherichia coli ATCC 25922 WT
  MIC: ≤ 0.06 µg/mL
[9]; NCTC13443, read-out: MIC K. pneumoniae NCTC 13443 (NDM-1) Q62L mutant
  MIC: > 8 µg/mL
[9]; NCTC13443, read-out: MIC Klebsiella pneumoniae NCTC 13443 LptA Q62L (5x)
  MIC: > 64 µg/mL
[10]
  MIC: ≤ 0.06 µg/mL
[11]
  MIC: ≤ 0.06 µg/mL
[12]
  MIC: > 64 µg/mL
[13]; NCTC13443, read-out: MIC K. pneumoniae NCTC 13443 (NDM-1) Parent
  MIC: > 8 µg/mL
[13]; NCTC13443, read-out: MIC Klebsiella pneumoniae NCTC 13443 WT
  MIC: > 64 µg/mL
[14]
  MIC: > 64 µg/mL
[15]
  MIC: ≤ 0.06 µg/mL
[16]; ATCC43816, read-out: MIC K. pneumoniae ATCC 43816 Q62L mutant
  MIC: 0.063 µg/mL (≈ 0.164 µM)
[16]; ATCC43816, read-out: MIC Klebsiella pneumoniae ATCC 43816 LptA Q62L (4x)
  MIC: ≤ 0.06 µg/mL
[17]; ATCC25922, read-out: MIC E. coli ATCC 25922 Q62L mutant
  MIC: 0.063 µg/mL (≈ 0.164 µM)
[17]; ATCC25922, read-out: MIC Escherichia coli ATCC 25922 LptA Q62L (7x)
  MIC: ≤ 0.06 µg/mL
[18]
  MIC: 0.13 µg/mL (≈ 0.339 µM)
[19]
  MIC: ≤ 0.06 µg/mL
[20]
  MIC: 0.13 µg/mL (≈ 0.339 µM)
